Patent US20250177340A1, “Tartaric Acid Analogs and Uses Thereof” (Lapix Therapeutics, Inc., priority 2021, published 2025)

Columns and labels:
Granzyme B and IFN-γ [1] = experiment: Dose-response of GranzymeB/IFN-γ double positivity in murine CD8+ T-cells, Example 9; assay type: cell-based, C57BL/6 mice; conditions: Mus musculus, T-cell; for Emax: FIG. 4, 5-parameter fit, read-out: maximal response (GzmB/IFN-γ double positive CD8+ T-cells)
Description: A dose-response analysis of compounds B-E in murine CD8+ T-cells was conducted to evaluate the effect of dose on GranzymeB/IFN-γ double positivity.
Compound C, D and E were first dissolved in a small volume of DMSO before diluting to the final desired concentration.
Splenocytes from naïve C57BL/6 mice were stained with CFSE, prepared, cultured, and dosed. Cells were seeded at 2×10^5 cells/well. Negative control was dosed with 10 ng/ml IL-2. After ConA stimulation (10 μg/ml), cells were dosed with log 3 dilution of each compound from 3×10^−9 to 30 µM in triplicates. All wells were dosed with 10 ng/ml of IL-2.
Flow cytometer analysis was performed to assess percent CD8+ T-cells and percent activation by double staining for Granzyme B (GzmB) and IFN-γ as described in Example 7. Concentration versus response curve was fitted to a 4- or 5-parameter log-logistic model using the “dre” package in “R”. Both EC50 and EC90 were obtained by model fitting.

PD-1 = experiment: Percent PD-1+/CD8+ T-cells in splenocytes after a single dose, melanoma murine model; assay type: in vivo, mice
Description: The pharmacodynamic (PD) effects of a single IV dose of Compound B in a melanoma murine model were evaluated. B16F10 melanoma cells were grown in RPMI 1640 media supplemented with 10% FBS and antibiotics (penicillin/streptomycin) using T75 flasks. When cells reached 70-80% confluency, they were treated with 3 ml of 0.25% Trypsin/EDTA. Afterward, detached cells were harvested. A single-cell suspension was prepared in PBS. An IV injection of 10^5 cells in mice marked day −3 of the experiment.
Animals were housed four per cage, and had access to food and water ad libitum. Compound B was dissolved in sterile PBS, and pH was adjusted to approximately 7.5. Sterile PBS served as control.
Three days after the IV injection of melanoma cells, animals in the baseline group (n=3) were sacrificed and their spleens were collected for KLRG-1, CTLA-4, and PD-1 analysis. At each predetermined time-point (24, 48, and 120 hours after dosing) three animals from each group were sacrificed for splenocyte analysis of KLRG-1, CTLA-4, and PD-1 expression levels, and expression levels were compared to baseline.
Spleens collected for splenocyte analysis were prepared into a single-cell suspension for cellular phenotyping by flow cytometry. Cells were stained and gated for CD8. Percent KLRG-1+, CTLA-4+, and PD-1+ CD8+ T-cells were evaluated using flow cytometry.
The PD effects of a single IV dose of Compound C were evaluated in a melanoma murine model conducted as described in Example 10. […] This study also evaluated whether Compound C was pharmacodynamically active orally.
In a prior study, Compound C was dosed at 1 mg IV QD for seven days. […] A single PO dose was chosen to confirm oral activity of Compound C. Compound C was dissolved in DMSO, and then diluted in sterile PBS. pH was adjusted to approximately 7.5.
The oral and intravenous PD effects of a single dose of Compound E were evaluated in a melanoma murine model conducted as described in Example 10.
Compound E was dissolved in DMSO, and then diluted in sterile PBS. pH was adjusted to approximately 7.5.

murine CD8+ T cells = experiment: Murine CD8+ T-cell proliferation (CFSE), Example 6; assay type: cell-based, C57BL/6 mice; conditions: 30 mM, ConA 10 μg/ml
Description: Preparation of test materials: TTA, compound A and compound B were formulated in RPMI media under aseptic conditions. The pH was adjusted to approximately 7.5 before dosing cells.
Tissue culture and dosing: Splenocytes of C57BL/6 mice were stained with CFSE and prepared, cultured, and dosed. Cells were seeded at 1×10^5 cells/well in a 96-well round-bottomed plate.
Controls: Two controls were used. A negative control dosed with 10 ng/ml IL2 was used, and a positive control dosed with 20 μg/ml ConA and 10 ng/ml IL2 was used.
Treatment: After ConA stimulation (10 μg/ml), cells were dosed with 30 mM compound A, B or C with or without 0.1 mM 30:70 PS:DMPC liposomes. All wells were dosed with 10 ng/ml of IL-2.

Granzyme B and IFN-γ [2] = experiment: GzmB+/IFN-γ+ double-positive murine CD8+ T-cells, Example 7; assay type: cell-based, C57BL/6 mice
Excerpt: In this study, the effects of increasing doses of compound B and compound C on proliferation (CFSE staining), activation (Granzyme B and IFN-γ), and checkpoint modulation (PD1 and TIM3) of murine CD8+ T-cells in the presence and absence of phosphatidylserine (PS) were explored.
Preparation of test materials: 30:70 PS:DMPC liposomes were synthesized in PBS. […] Compound C was first dissolved in a small volume of DMSO before diluting to the final desired concentration.
Tissue culture and dosing: Splenocytes of C57BL/6 mice were stained with CFSE and prepared, cultured, and dosed. Cells were seeded at 4×10^5 cells/well.
Controls: Two controls were used. A negative control dosed with 10 ng/ml IL-2 was used, and a positive control dosed with 20 μg/ml ConA and 10 ng/ml IL-2 was used.
Treatment: After ConA stimulation (10 μg/ml), cells were dosed with log 3 dilution of compound B or compound C to cover a range from 1×10^−3 to 30 mM in duplicates with or without 0.1 mM PS:DMPC liposomes. All wells were dosed with 10 ng/ml of IL-2.
Flow cytometer: Flow cytometer analysis was performed to assess cell proliferation by CFSE, activation by double staining for Granzyme B (GzmB) and IFN-γ, checkpoint modulation by double staining for PD-1 and TIM3.
Exposure-response analysis: Change from baseline was calculated for each marker as follows:
Concentration versus change was fitted to an appropriate three-, four- or five-parameter log-logistic model using “dre” package in “R.”
The fold change from baseline GzmB+/IFN-γ+ double-positive CD8+ T-cells as a function of increasing doses of compound B was calculated using equation 1, where Responsecontrol was GzmB+/IFN-γ+ double-positive CD8+ T-cells in cells treated with IL-2 alone and Responsetreatment was GzmB+/IFN-γ+ double-positive CD8+ T-cells at each dose of compound B. The baseline PS response was calculated using the same equation with Responsetreatment as the GzmB+/IFN-γ+ double-positive CD8+ T-cells treated with 0.1 mM PS.

Oral bioavailability = assay type: in vivo
[3] = increasing doses, absence of PS

Compound: O=C(O)[C@H](O)[C@@H](O)C(=O)OCCCc1ccccc1 [Compound B, (2R,3R)-2,3-dihydroxy-4-oxo-4-(3-phenylpropoxy)butanoic acid]
- EC50 (Granzyme B and IFN-γ [1]; 4-parameter model): 9.8 nM
- EC90 (Granzyme B and IFN-γ [1]; 4-parameter model): 950 nM
- EC50 (Granzyme B and IFN-γ [1]; 5-parameter model): 11 nM
- EC90 (Granzyme B and IFN-γ [1]; 5-parameter model): 3000 nM
- Emax (Granzyme B and IFN-γ [1]): ~60%
- PD-1+/CD8+ T-cells, mean (PD-1; 0.14 mg/mouse IV single dose, 24 h): 38.6%
- PD-1+/CD8+ T-cells, mean (PD-1; 0.14 mg/mouse IV single dose, 48 h): 32.5%
- PD-1+/CD8+ T-cells, mean (PD-1; 0.14 mg/mouse IV single dose, 120 h): 59.7%
- PD-1+/CD8+ T-cells, mean (PD-1; 0.7 mg/mouse IV single dose, 24 h): 44.5%
- PD-1+/CD8+ T-cells, mean (PD-1; 0.7 mg/mouse IV single dose, 48 h): 26.7%
- PD-1+/CD8+ T-cells, mean (PD-1; 0.7 mg/mouse IV single dose, 120 h): 58.2%
- reduction in PD-1+/CD8+ T-cell compared to control (PD-1; 1.2 mg group, day 5): 41.8%
- PD-1+/CD8+ T-cells, mean (PD-1; 1.4 mg/mouse IV single dose, 24 h): 42.3%
- PD-1+/CD8+ T-cells, mean (PD-1; 1.4 mg/mouse IV single dose, 48 h): 30.4%
- PD-1+/CD8+ T-cells, mean (PD-1; 1.4 mg/mouse IV single dose, 120 h): 34.7%
- percent of CD8+ T-cell proliferation (murine CD8+ T cells; in absence of PS): 78.3%
- fold increase in GzmB+/IFN-γ+ double-positive CD8+ T-cells vs PS treated cell (Granzyme B and IFN-γ [2]; highest dose, 0.1 mM PS): 4.6 fold
- fold increase in GzmB+/IFN-γ+ double-positive CD8+ T-cells vs negative control (Granzyme B and IFN-γ [2]; highest dose, 0.1 mM PS): 2 fold
- fold increase in GzmB+/IFN-γ+ double-positive CD8+ T-cells vs negative control (Granzyme B and IFN-γ [2]; [3]): more than 16 fold
- bioavailability (Oral bioavailability; mouse, in vivo, po, data not shown): ~30%

Compound: O=C(O)[C@H](O)[C@@H](O)C(=O)OCCC(c1ccccc1)c1ccccc1 [Compound C, (2R,3R)-4-(3,3-diphenylpropoxy)-2,3-dihydroxy-4-oxobutanoic acid]
- EC50 (Granzyme B and IFN-γ [1]; 4-parameter model): 43 nM
- EC90 (Granzyme B and IFN-γ [1]; 4-parameter model): 29000 nM
- EC50 (Granzyme B and IFN-γ [1]; 5-parameter model): 42 nM
- EC90 (Granzyme B and IFN-γ [1]; 5-parameter model): 28000 nM
- Emax (Granzyme B and IFN-γ [1]): ~60%
- PD-1+/CD8+ T-cells, mean (PD-1; 0.025 mg/mouse IV single dose, 24 h): 35%
- PD-1+/CD8+ T-cells, mean (PD-1; 0.1 mg/mouse IV single dose, 24 h): 34%
- PD-1+/CD8+ T-cells, mean (PD-1; 0.25 mg/mouse IV single dose, 24 h): 27%
- PD-1+/CD8+ T-cells, mean (PD-1; 1 mg/mouse IV single dose, 24 h): 26%
- PD-1+/CD8+ T-cells, mean (PD-1; 2.5 mg/mouse po single dose, 24 h): 33%
- decrease in PD-1+/CD8+ T-cells compared to baseline (PD-1; 0.25- and 1-mg IV groups): approximately 20%
- decrease in PD-1+/CD8+ T-cells compared to time match control (PD-1; 0.25- and 1-mg IV groups): approximately 30%
- change in PD-1+/CD8+ T-cells compared to baseline or control (PD-1; remaining groups (0.025, 0.1 mg IV, 2.5 mg PO)): No meaningful changes
- percent of CD8+ T-cell proliferation (murine CD8+ T cells; in absence of PS): 84.5%
- percent of CD8+ T-cell proliferation (murine CD8+ T cells; in the presence of 0.1 mM PS): 55.5%
- fold increase in GzmB+/IFN-γ+ double-positive CD8+ T-cells vs PS treated cell (Granzyme B and IFN-γ [2]; highest dose, 0.1 mM PS): 18 fold
- fold increase in GzmB+/IFN-γ+ double-positive CD8+ T-cells vs negative control (Granzyme B and IFN-γ [2]; highest dose, 0.1 mM PS): 10 fold
- fold increase in GzmB+/IFN-γ+ double-positive CD8+ T-cells vs negative control (Granzyme B and IFN-γ [2]; [3]): about 30 fold
- oral bioavailability (Oral bioavailability; prior study): not orally bioavailable
